In patent US11090285B2, “Treatment of circadian rhythm disorders” (Vanda Pharmaceuticals Inc., priority 2013, dated 2021):

Key:
[1] = molecular target: T1, MT2R (Homo sapiens, UniProt P49286); assay: Melatonin receptor affinity, MT2R; assay type: binding
T1 sequence (P49286 1-362): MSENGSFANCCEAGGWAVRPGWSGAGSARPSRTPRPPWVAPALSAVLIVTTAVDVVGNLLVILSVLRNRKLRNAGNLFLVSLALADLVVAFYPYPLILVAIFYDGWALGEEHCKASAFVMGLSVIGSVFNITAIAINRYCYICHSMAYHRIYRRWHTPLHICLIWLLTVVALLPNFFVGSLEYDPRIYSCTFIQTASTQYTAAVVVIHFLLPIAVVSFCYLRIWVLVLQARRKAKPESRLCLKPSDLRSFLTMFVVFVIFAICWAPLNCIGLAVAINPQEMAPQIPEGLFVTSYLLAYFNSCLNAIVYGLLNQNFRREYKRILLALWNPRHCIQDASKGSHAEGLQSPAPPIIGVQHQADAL
Procedure: (§1) Tasimelteon is a white to off-white powder with a melting point of about 78° C. […] Tasimelteon has 2-4 times greater affinity for MT2R relative to MT1R.

[2] = Solubility and pH of saturated solution; assay type: physicochemical
Procedure: as §1

[3] = system: Non-24 patients; assay: Phase advance of circadian rhythm on initiation of treatment; assay type: in vivo, human; conditions: upon initiation of treatment
Procedure: For example, treatment of a patient who has a target bedtime of 10:00 p.m. and a target wake time of 7:00 a.m., treatment initiation can be on a day when urinary aMT6s acrophase is predicted to occur at 3:30 am. However, treatment with tasimelteon can conveniently be initiated on a day on which melatonin acrophase, e.g., using calculated urinary aMT6s acrophase, is predicted to be between about 5.5 hours before target wake time and 2.5 hours after target wake time. Without intending to be bound to a particular theory, this flexibility is apparently owing to the unusually marked effects of such active ingredient on circadian rhythm upon initiation of treatment (e.g., phase advance by as much as about 5 hours on initial treatment).

[4] = system: Non-24 patients; assay: Entrainment by peak aMT6s level and beta blocker use (clinical studies); assay type: in vivo, human
Procedure: Results of clinical study also show a strong correlation between endogenous melatonin and efficacy of tasimelteon in entraining patients to a 24 hour circadian rhythm. The following table (Table 3A) compares the peak aMT6s levels in the 24 entrained and 23 non-entrained patients.
Data from these studies currently available also indicate that beta blocker therapy is […] related to efficacy of tasimelteon, i.e., patients receiving beta blocker therapy were less likely to become entrained than patients who were not.

[5] = Pharmacokinetics on co-administration of tasimelteon and fluvoxamine; assay type: in vivo, human
Procedure: Twenty-four healthy male or female subjects between the ages of 18 and 55 years of age (inclusive) who were non-smokers with a body mass index (BMI) of ≥18 and ≤35 kg/m2 participated in this open-label, single-sequence study conducted at one site. On day 1, subjects were administered […] of tasimelteon.

[6] = Tasimelteon exposure with ketoconazole (CYP3A4 inhibitor); assay type: in vivo, human; conditions: single 20 mg dose on fifth day of ketoconazole 400 mg per day vs tasimelteon alone
Procedure: Therefore, in cases where an individual is co-administered a CYP3A4 inhibitor, the dose of tasimelteon administered may be less than if administered alone or in the absence of a CYP3A4 inhibitor.
For example, a pharmaceutical composition providing a dosage equivalent to a daily dosage between about 5 mg and about 15 mg of tasimelteon may be co-administered with a […] inhibitor.

[7] = Tasimelteon exposure with Rifampin (CYP3A4 inducer); assay type: in vivo, human; conditions: single 20 mg dose after 11 days of 600 mg Rifampin
Procedure: For example, when a single 20 mg dose of tasimelteon was administered after 11 days of the administration of 600 mg of Rifampin, tasimelteon mean exposure was reduced by approximately 89%. Therefore, in cases where an individual is co-administered a CYP3A4 inducer, the dose of tasimelteon administered may be greater than if administered alone or in the absence of a CYP3A4 inducer.

[8] = Effect of smoking on pharmacokinetics of tasimelteon and metabolites; assay type: in vivo, human
Text: Smokers were defined as those smoking 10 or more cigarettes per day. Non-smokers were defined as those smoking no cigarettes per day.

[9] = system: CYP1A2 and CYP3A4; assay: Isoenzymes involved in tasimelteon metabolism; assay type: in vitro ADME
[10] = co-administration of fluvoxamine vs tasimelteon alone

Compound: CCC(=O)NC[C@@H]1C[C@H]1c1cccc2c1CCO2 (relative stereo) [Tasimelteon, trans-N-[[2-(2,3-dihydrobenzofuran-4-yl)cycloprop-1yl]methyl]propanamide]
- greater affinity for MT2R relative to MT1R [1]: 2-4 times
- effect of pH on aqueous solubility [2]: practically unaffected by pH
- native pH of a saturated solution in water [2]: 8.5
- solubility in organic solvents ([2]; 95% ethanol, methanol, acetonitrile, ethyl acetate, isopropanol, PEG-300 and PEG-400): very soluble or freely soluble
- solubility in water ([2]; water): only slightly soluble
- phase advance on initial treatment [3]: ≤ 5 h
- Entrained patients ([4]; Peak aMT6s <1500 ng/hr): 12 (41%)
- Non-entrained patients ([4]; Peak aMT6s <1500 ng/hr): 17 (59%)
- Entrained patients ([4]; Peak aMT6s <2000 ng/hr): 13 (38%)
- Non-entrained patients ([4]; Peak aMT6s <2000 ng/hr): 21 (62%)
- Entrained patients ([4]; Peak aMT6s ≥1500 ng/hr): 12 (67%)
- Non-entrained patients ([4]; Peak aMT6s ≥1500 ng/hr): 6 (33%)
- Entrained patients ([4]; Peak aMT6s ≥2000 ng/hr): 11 (85%)
- Non-entrained patients ([4]; Peak aMT6s ≥2000 ng/hr): 2 (15%)
- Entrained patients ([4]; Peak aMT6s: All (47 patients)): 24 (51%)
- Non-entrained patients ([4]; Peak aMT6s: All (47 patients)): 23 (49%)
- Entrained patients ([4]; Taking Beta Blocker: No): 24
- Non-entrained patients ([4]; Taking Beta Blocker: No): 19
- Entrained patients ([4]; Taking Beta Blocker: Yes): 0
- Non-entrained patients ([4]; Taking Beta Blocker: Yes): 4
- patients who responded to therapy ([4]; baseline aMT6s excretion rate >2000 ng/hr): Eleven of thirteen
- CL/F ([5]; Day 1, 5.667 mg tasimelteon alone): 107 ± 555 mL/min
- CL/F ([5]; Day 8, 5.667 mg tasimelteon + 50 mg fluvoxamine): 189 ± 155 mL/min
- AUC (inf), Geometric Mean Ratio ([5]; Day 8 vs Day 1): 653.36%
- CL/F, Geometric Mean Ratio ([5]; Day 8 vs Day 1): 15.31%
- Cmax, Geometric Mean Ratio ([5]; Day 8 vs Day 1): 232.74%
- t½, Geometric Mean Ratio ([5]; Day 8 vs Day 1): 211.82%
- increase of AUC0-inf [5, 10]: approximately 7 fold
- increase of Cmax [5, 10]: approximately 2 fold
- increase of tasimelteon exposure [6]: approximately 54%
- reduction of tasimelteon mean exposure [7]: approximately 89%
- CL/F ([8]; Non-Smokers): 1,482 ± 1,008 mL/min
- CL/F ([8]; Smokers): 2,290 ± 1,232 mL/min
- AUC (inf), Geometric Mean Ratio ([8]; Smokers vs Non-Smokers): 60.14%
- CL/F, Geometric Mean Ratio ([8]; Smokers vs Non-Smokers): 166.27%
- Cmax, Geometric Mean Ratio ([8]; Smokers vs Non-Smokers): 63.98%
- Vz/F, Geometric Mean Ratio ([8]; Smokers vs Non-Smokers): 144.39%
- t½, Geometric Mean Ratio ([8]; Smokers vs Non-Smokers): 86.84%
- isoenzymes also involved in metabolism [9]: CYP1A1, CYP2D6, CYP2C19, and CYP2C9
- major isoenzymes involved in the metabolism [9]: CYP1A2 and CYP3A4
